Experimental data reported in patent US12221417B2, “Salt of omecamtiv mecarbil and process for preparing salt” (Cytokinetics, Inc., priority 2013, dated 2025).
Where a name gives a salt, the structure may show the parent alone.

Legend:
[1] = pH 3.5
physchem = conditions: pH 3.5, water, thermodynamic from solid
[2] = Dynamic vapor sorption (moisture balance); format: physicochemical
Experimental: Moisture balance data was collected using a VTI SGA 100 symmetrical vapor sorption analyzer. Relative humidity was varied in increments of 5%, between 5% and 95% relative humidity during the adsorption run, and from 95% to 5% relative humidity during the desorption run. Equilibrium criteria was set at 0.01% weight change in 1 minute with a max equilibrium time of 180 minutes. Approximately 1-15 mg of sample was used.

[3] = Water solubility (24 hour slurry experiment); conditions: pH 3.8, water, thermodynamic from solid

phase change during the slurry experiment [1] | solubility at 24 h (physchem) | weight change, dynamic vapor sorption ([2]; above 15% relative humidity, upon reaching 95% relative humidity) | weight loss, dynamic vapor sorption ([2]; between about 30% and about 5% RH) | total weight gain, dynamic vapor sorption ([2]; between about 40% and about 95% relative humidity) | hygroscopicity ([2]; dynamic vapor sorption) | phase change after the vapor sorption experiment ([2]; examined by XRPD) | solubility [3] | SMILES
no phase change | > 40 mg/mL | ~1.0% | about 2.7 wt % | about 0.55 wt. % | non-hygroscopic | No phase change |  | COC(=O)N1CCN(Cc2cccc(NC(=O)Nc3ccc(C)nc3)c2F)CC1 [Form A, omecamtiv mecarbil dihydrochloride hydrate]
 |  |  |  |  |  |  | > 40 mg/mL | COC(=O)N1CCN(Cc2cccc(NC(=O)Nc3ccc(C)nc3)c2F)CC1 [dihydrochloride salt, omecamtiv mecarbil dihydrochloride hydrate]
